# Measured values reported in US9708334B2, “Substituted 2,4,5,6-tetrahydropyrrolo[3,4-c]pyrazole and 4,5,6,7-tetrahydro-2H-pyrazolo[4,3-c]pyridine compounds as GlyT1 inhibitors” (DART NEUROSCIENCE (CAYMAN) LTD., priority 2014, dated 2017).
# Biological target: T1, GlyT1 (Homo sapiens, UniProt P48067)
# T1 construct: expressed in transfected cells
# T1 sequence (P48067 1-706): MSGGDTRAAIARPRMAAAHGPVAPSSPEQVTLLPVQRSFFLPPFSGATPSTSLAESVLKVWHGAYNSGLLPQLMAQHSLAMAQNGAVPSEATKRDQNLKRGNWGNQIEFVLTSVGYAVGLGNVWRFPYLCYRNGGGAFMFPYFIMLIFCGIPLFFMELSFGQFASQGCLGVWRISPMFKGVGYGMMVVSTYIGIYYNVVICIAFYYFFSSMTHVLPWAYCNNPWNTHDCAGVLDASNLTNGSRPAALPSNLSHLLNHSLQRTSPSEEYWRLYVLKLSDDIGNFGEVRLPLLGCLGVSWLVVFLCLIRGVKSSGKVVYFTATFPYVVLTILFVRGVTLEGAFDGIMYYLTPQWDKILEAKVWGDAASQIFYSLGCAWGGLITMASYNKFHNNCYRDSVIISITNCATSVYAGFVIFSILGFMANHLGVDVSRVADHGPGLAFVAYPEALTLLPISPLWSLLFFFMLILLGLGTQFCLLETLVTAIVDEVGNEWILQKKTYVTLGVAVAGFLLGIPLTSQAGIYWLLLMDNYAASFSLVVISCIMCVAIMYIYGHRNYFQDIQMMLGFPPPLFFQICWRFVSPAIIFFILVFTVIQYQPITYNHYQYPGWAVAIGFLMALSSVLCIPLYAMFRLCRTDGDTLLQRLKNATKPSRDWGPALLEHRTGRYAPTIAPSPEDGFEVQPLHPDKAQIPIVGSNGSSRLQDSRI
# Assay: Glycine Transporter 1 (GlyT1) uptake assay, scintillation proximity assay of [14C]-glycine uptake
# Assay type: cell-based
# Conditions: SPA, four parameter logistic fit, read-out: GlyT1 (pIC50) (converted)
# In short: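 [14C]-glycine uptake read by scintillation proximity on a plate counter. IC50 from four-parameter logistic fit of dose-response data.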
row,Compound,IC50 [nM]
1,"CC(C)Oc1ccc(S(C)(=O)=O)cc1C(=O)N1Cc2cn(CC3CCC3)nc2C1 [Example 410, 2-(Cyclobutylmethyl)-5-[5-methanesulfonyl-2-(propan-2-yloxy)benzoyl]-2H 4H 5H 6H-pyrrolo[3,4-c]pyrazole]",< 100
2,"COc1c(C#N)ccc(OC2COC2)c1C(=O)N1Cc2cn(-c3ccc(F)c(C)n3)nc2C1 [Example 537, 3-[2-(5-Fluoro-6-methylpyridin-2-yl)-2H 4H 5H 6H-pyrrolo[3,4-c]pyrazole-5-carbonyl]-2-methoxy-4-(oxetan-3-yloxy)benzonitrile]",100 to 1000
3,"CS(=O)(=O)c1ccc(-c2ccc(C(F)(F)F)nc2)c(C(=O)N2Cc3cn(-c4ccccc4F)nc3C2)c1 [Example 547, 5-{2-[2-(2-Fluorophenyl)-2H 4H 5H 6H-pyrrolo[3,4-c]pyrazole-5-carbonyl]-4-methanesulfonylphenyl}-2-(trifluoromethyl)pyridine]",100 to 1000
4,"CC(C)Oc1ccc(C#N)cc1C(=O)N1Cc2cnn(CC(F)(F)F)c2C1 [Example 444, 4-(Propan-2-yloxy)-3-[1-(2 2 2-trifluoroethyl)-1H 4H 5H 6H-pyrrolo[3,4-c]pyrazole-5-carbonyl]benzonitrile]",100 to 1000
5,"COc1c(C#N)ccc(O[C@H](C)C(F)(F)F)c1C(=O)N1Cc2cn(-c3ccnc(C)c3)nc2C1 [Example 288, 2-Methoxy-3-[2-(2-methylpyridin-4-yl)-2H 4H 5H 6H-pyrrolo[3,4-c]pyrazole-5-carbonyl]-4-{[(2R)-1 1 1-trifluoropropan-2-yl]oxy}benzonitrile]",< 100
6,C[C@H](Oc1ccc(S(C)(=O)=O)cc1C(=O)N1Cc2cn(-c3ccc(F)cc3)nc2C1)C(F)(F)F [Example 340],100 to 1000
7,"CCS(=O)(=O)c1ccc(-c2cc(F)cc(F)c2)c(C(=O)N2Cc3cn(-c4cncc(F)c4)nc3C2)c1 [Example 572, 3-{5-[2-(3 5-Difluorophenyl)-5-(ethanesulfonyl)benzoyl]-2H 4H 5H 6H-pyrrolo[3,4-c]pyrazol-2-yl}-5-fluoropyridine]",100 to 1000
8,"CC(Oc1ccc(S(C)(=O)=O)cc1C(=O)N1CCc2nn(-c3ccccc3)cc2C1)C(F)(F)F (centres unmarked) [Example 163, 5-{5-Methanesulfonyl-2-[(1 1 1-trifluoropropan-2-yl)oxy]benzoyl}-2-phenyl-2H 4H 5H 6H 7H-pyrazolo[4,3-c]pyridine]",100 to 1000
9,"Cc1cc(-n2cc3c(n2)CN(C(=O)c2cc(C#N)ccc2OC(C)(C)C(F)(F)F)C3)ccn1 [Example 542, 3-[2-(2-Methylpyridin-4-yl)-2H 4H 5H 6H-pyrrolo[3,4-c]pyrazole-5-carbonyl]-4-[(1 1 1-trifluoro-2-methylpropan-2-yl)oxy]benzonitrile]",< 100
10,"Cc1nc(-n2cc3c(n2)CN(C(=O)c2cc(C#N)ccc2OC(C)C)C3)ccc1F [Example 339, 3-[2-(5-Fluoro-6-methylpyridin-2-yl)-2H 4H 5H 6H-pyrrolo[3,4-c]pyrazole-5-carbonyl]-4-(propan-2-yloxy)benzonitrile]",100 to 1000
11,"Cc1ccc(F)c(-n2cc3c(n2)CN(C(=O)c2cc(S(C)(=O)=O)ccc2OC(C)C)C3)c1 [Example 130, 2-(2-Fluoro-5-methylphenyl)-5-[5-methanesulfonyl-2-(propan-2-yloxy)benzoyl]-2H 4H 5H 6H-pyrrolo[3,4-c]pyrazole]",< 100
12,"C[C@H](Oc1ccc(C#N)cc1C(=O)N1Cc2cnn(-c3ccnnc3)c2C1)C(F)(F)F [Example 421, 3-[1-(Pyridazin-4-yl)-1H 4H 5H 6H-pyrrolo[3,4-c]pyrazole-5-carbonyl]-4-{[(2S)-1 1 1-trifluoropropan-2-yl]oxy}benzonitrile]",100 to 1000
13,CCS(=O)(=O)c1ccc(N2CCC(F)(F)CC2)c(C(=O)N2Cc3cn(-c4cncc(F)c4)nc3C2)c1 [Example 112],< 100
14,"C[C@H](Oc1ccc(C#N)cc1C(=O)N1Cc2cn(-c3ccnc(C4CC4)c3)nc2C1)C(F)(F)F [Example 404, 3-[2-(2-Cyclopropylpyridin-4-yl)-2H 4H 5H 6H-pyrrolo[3,4-c]pyrazole-5-carbonyl]-4-{[(2S)-1 1 1-trifluoropropan-2-yl]oxy}benzonitrile]",< 100
15,"C[C@H](Oc1ccc(C#N)c(Cl)c1C(=O)N1CCc2[nH]nc(-c3ccc(C(F)(F)F)cc3)c2C1)C(F)(F)F [Example 255, 2-Chloro-3-{3-[4-(trifluoromethyl)phenyl]-1H 4H 5H 6H 7H-pyrazolo[4,3-c]pyridine-5-carbonyl}-4-{[(2S)-1 1 1-trifluoropropan-2-yl]oxy}benzonitrile]",1000 to 10000
16,"CCS(=O)(=O)c1ccc(O[C@@H](C)C(F)(F)F)c(C(=O)N2Cc3cn(-c4cccc(F)c4Cl)nc3C2)c1 [Example 151, 2-(2-Chloro-3-fluorophenyl)-5-[5-(ethanesulfonyl)-2-{[(2S)-1 1 1-trifluoropropan-2-yl]oxy}benzoyl]-2H 4H 5H 6H-pyrrolo[3,4-c]pyrazole]",< 100
17,"Cc1c(F)ccc(-n2cc3c(n2)CN(C(=O)c2cc(S(C)(=O)=O)ccc2OCC(C)(C)C)C3)c1F [Example 64, 2-(2 4-Difluoro-3-methylphenyl)-5-[2-(2 2-dimethylpropoxy)-5-methanesulfonylbenzoyl]-2H 4H 5H 6H-pyrrolo[3,4-c]pyrazole]",< 100
18,"COc1ncc(F)cc1-n1cc2c(n1)CCN(C(=O)c1c(OC(C)C(F)(F)F)ccc(C#N)c1Cl)C2 (centres unmarked) [Example 230, 2-Chloro-3-[2-(5-fluoro-2-methoxypyridin-3-yl)-2H 4H 5H 6H 7H-pyrazolo[4,3-c]pyridine-5-carbonyl]-4-[(1 1 1-trifluoropropan-2-yl)oxy]benzonitrile]",100 to 1000
19,"N#Cc1ccc(OCC(F)(F)F)c(C(=O)N2CCc3nn(-c4ccc(F)cn4)cc3C2)c1Cl [Example 224, 2-Chloro-3-[2-(5-fluoropyridin-2-yl)-2H 4H 5H 6H 7H-pyrazolo[4,3-c]pyridine-5-carbonyl]-4-(2 2 2-trifluoroethoxy)benzonitrile]",1000 to 10000
20,"CC(C)Oc1ccc(C#N)cc1C(=O)N1Cc2cn(-c3ccc(F)cc3F)nc2C1 [Example 390, 3-[2-(2 4-Difluorophenyl)-2H 4H 5H 6H-pyrrolo[3,4-c]pyrazole-5-carbonyl]-4-(propan-2-yloxy)benzonitrile]",100 to 1000
21,"CC(C)Oc1ccc(C#N)cc1C(=O)N1Cc2cn(-c3cncc(F)c3)nc2C1 [Example 336, 3-[2-(5-Fluoropyridin-3-yl)-2H 4H 5H 6H-pyrrolo[3,4-c]pyrazole-5-carbonyl]-4-(propan-2-yloxy)benzonitrile]",100 to 1000
22,"CC1(COc2ccc(C#N)c(Cl)c2C(=O)N2CCc3nn(-c4ccccc4)cc3C2)CC1 [Example 507, 2-Chloro-4-[(1-methylcyclopropyl)methoxy]-3-{2-phenyl-2H 4H 5H 6H 7H-pyrazolo[4,3-c]pyridine-5-carbonyl}benzonitrile]",100 to 1000
23,"COc1cccc(-n2cc3c(n2)CN(C(=O)c2c(O[C@@H](C)C(F)(F)F)ccc(C#N)c2OC)C3)n1 [Example 275, 2-Methoxy-3-[2-(6-methoxypyridin-2-yl)-2H 4H 5H 6H-pyrrolo[3,4-c]pyrazole-5-carbonyl]-4-{[(2S)-1 1 1-trifluoropropan-2-yl]oxy}benzonitrile]",< 100
24,"C[C@H](Oc1ccc(S(C)(=O)=O)cc1C(=O)N1Cc2cn(-c3cccc(Cl)c3F)nc2C1)C(F)(F)F [Example 146, 2-(3-Chloro-2-fluorophenyl)-5-(5-methanesulfonyl-2-{[(2S)-1 1 1-trifluoropropan-2-yl]oxy}benzoyl)-2H 4H 5H 6H-pyrrolo[3,4-c]pyrazole]",< 100
25,"COc1c(C#N)ccc(OCC(F)(F)F)c1C(=O)N1Cc2cn(-c3ccnc(C)c3)nc2C1 [Example 308, 2-Methoxy-3-[2-(2-methylpyridin-4-yl)-2H 4H 5H 6H-pyrrolo[3,4-c]pyrazole-5-carbonyl]-4-(2 2 2-trifluoroethoxy)benzonitrile]",< 100
26,"CC(Oc1ccc(C(=O)N(C)C)c(Cl)c1C(=O)N1CCc2nn(-c3ccc(F)cc3)cc2C1)C(F)(F)F (centres unmarked) [Example 200, 2-Chloro-3-[2-(4-fluorophenyl)-2H 4H 5H 6H 7H-pyrazolo[4,3-c]pyridine-5-carbonyl]-N N-dimethyl-4-[(1 1 1-trifluoropropan-2-yl)oxy]benzamide]",1000 to 10000
27,"COc1c(C#N)ccc(OC(C)C(F)(F)F)c1C(=O)N1CCc2c(c(C(F)(F)F)nn2-c2ccc(F)cc2)C1 (centres unmarked) [Example 577, 3-[1-(4-Fluorophenyl)-3-(trifluoromethyl)-1H 4H 5H 6H 7H-pyrazolo[4,3-c]pyridine-5-carbonyl]-2-methoxy-4-[(1 1 1-trifluoropropan-2-yl)oxy]benzonitrile]",100 to 1000
28,"Cc1nn(-c2ccccc2)c2c1CN(C(=O)c1cc(S(C)(=O)=O)ccc1N1CCCCC1)CC2 [Example 166, 1-(4-Methanesulfonyl-2-{3-methyl-1-phenyl-1H 4H 5H 6H 7H-pyrazolo[4,3-c]pyridine-5-carbonyl}phenyl)piperidine]",100 to 1000
29,"N#Cc1ccc(OCC2CC2)c(C(=O)N2CCc3nn(-c4ccccc4)cc3C2)c1Cl [Example 504, 2-Chloro-4-(cyclopropylmethoxy)-3-{2-phenyl-2H 4H 5H 6H 7H-pyrazolo[4,3-c]pyridine-5-carbonyl}benzonitrile]",1000 to 10000
